Series [1] relates to L 1210 leukemia. The series is described as follows: Test 10: comparison of antitumoral activity with known products, L 1210 (Tables V-VII). The format is in vivo, mouse. Particulars: J+3. Here is the method: Test 10: Comparison of the antitumoral activity of the compound according to example 7 with that of known products
The compound of example 7, i.e. 1-(γ-diethylaminopropyl)amino-5-methyl-dipyrido-[4,3-b][3,4-f] indole or known compounds were injected into L 1210 leukemic mice 1 or 3 days after the inoculation of the cells at the doses indicated in tables V to VII and the mean survival time (MST) and the precentage of increased life span (ILS %) were measured.
Indications concerned the known products used in this example and particularly their antitumoral properties, their secondary effects and their use in man may be found in "La Chimiotherapie des Cancers", by G. MATHE and M. KENIS Expansion Scientifique Francaise, 3rd edition, Paris 1975.

For series [2], the system named is L1210 leukemia. The series is described as follows: Test 17: length of substituting chain, L1210 (Table XIII). The format is in vivo, mouse. As to the method: Test 17: Relationship between the length of the substituting chain and the activity.
However compound 21 is less toxic (50 mg/kg for compound 21 and 25 mg/kg for compound 23), it has a higher ILS% than compound 23 and 1 mouse survived up to 60 days.

For a further series, the system named is mice. The series can be described thus: Test 21: toxicity after intraperitoneal injection. The note with it: for time of deaths after drug administration: IP; for minimal quantity resulting in 100% deaths: ip, 43200 min. Here is the method:
All drugs were dissolved in aqueous solutions adjusted at pH 5 with acetic acid and inoculated to the mice under a volume of 0.1 ml I.P. after dilution in Mac Coy's medium.
The toxicity of the drugs after intraperitoneal injection was estimated from the mortality rate up to the 30th day.

For another series, the system named is leukemic cells. The series can be described thus: Test 20: combination of compound 21 with other drugs (Table XV). Particulars: 10^5 cells, BD 40 20 mg/kg day +4, Endoxan 100 mg/kg day +3.
In the next series the test system is Lewis carcinoma (3LL). The series is described as follows: Test 13: Lewis carcinoma, antimetastasic effect. The format is in vivo, BDF1 mice. As to the method: "carcinome pulmonaire de Lewis" (3LL), K. SUGIURA and C. C. STOCK," Cancer Res. 1955 15 38-51.
In this test, cells (10^6 cells) removed from a tumour-carrying mouse were injected into mice(BDF1) by the IM route. The mice developed, 10 to 15 days after the inoculation, a tumour at the spot where the injection was made. On the other hand, these cells made metastasis in the lung, forming colonies on the pulmonary surface. The antitumoral and antimetastasic effect of a product may therefore be judged on mice thus treated.
Investigation of the antimetastasic effect of the compounds of examples 7 and 8 of the invention
10^6 cells taken from a tumour-carrying mouse were injected by the IM route (left-band paw) into groups of 10 mice and the compounds to be tested were inoculated by the IP route on day J+5 by single or fractioned injection. The mean survival time (MST) and the increased life span (ILS %) were determined.

Series [3] concerns L 1210 leukemia. The series is described as follows: Test 11: L 1210 leukemic mice, examples 7 and 8 (Table VIII). The format is in vivo, mouse. Details: MTS: unit not given beside the values. The note with it: J+1. Here is the method: This test was carried out with 10^3, 10^4 and 10^5 leukemic cells on day J. This test was also carried out with the compound of example 7, i.e. 1-[(γ-diethylaminopropyl)amino]-5-methyl-dipyrido [4,3-b][3,4-f] indole (compound 21).

In series [4] the test system is L1210 leukemia. The series is described as follows: Test 16: structure-activity of R'1 substitution, L1210 (Table XII). The format is in vivo, mouse (C57B16xDBA/2)F1. Particulars: for 60 days surv. / ILS % / Range of death: day +1. As to the method:
Test 16: Relationship between structure and activity of various dipyrido indoles differing by the R'1 substitution.
L1210 leukemia has been maintained by weekly passages on (C57B16xDBA/2)F1 mice. On day 0, mice were inoculated by I.P. route with various numbers of L1210 ascitic tumor cells in volumes of 0.1 ml. Subsequently as indicated, drugs were administrated in Ca^++ and Mg^++ free PBS solutions (Gibco) or in Mac Coy's medium (Gibso or Microbiological Associates). […]

Series [5] relates to tumoral strain derived from the murine leukemia due to the C. FRIEND virus. The series can be described thus: Test 7: antitumoral activity in vitro on Friend leukemia tumoral strain. The format is cell-based. Particulars: HUM = 1. As to the method:
Test 7: Study of the antitumoral activity in vitro
This activity was measured on a tumoral strain derived from the murine leukemia due to the C. FRIEND virus.
The tumoral cells multiply in suspension in a "RPMI 1640" medium (Catalogue of GIBCO Bio-cult. Ltd. Washington Road, Sandyford Industrial Estate, PAISLEY PA 3 4EP, Renfrewshire, Scotland) supplemented with 20% of embryonary calf serum, penicillin and streptomycine. The duplication time of these cells is 11 hours. The growth fraction is equal to 1 or very close to 1 (all the cells are in the cycle). The cultures are sub-culturedat time t=0 at the concentration of 2.10^5 cells per ml in Falcon dishes containing 4 ml of medium. After twenty four hours, the product to be tested was added, i.e. at a moment when the cultures are in exponential phase of growth. Twenty four hours after the addition of the product, the cells are counted and the percentage of living cells determined by an exclusion test using "trypan" blue.

Setting [6] is: Table V, 10^4 cells, doses mg/mouse: example 7 0.2, Thiotepa 0.1, Mitomycine 0.016, BCNU 0.1, Methotrexate 0.250.
[7] abbreviates: Table V, 10^4 cells, mg/mouse: example 7 0.2, Thiotepa 0.1, Mitomycine 0.016, BCNU 0.1, Methotrexate 0.250, Endoxan 4.
[8] abbreviates: Table VI, 10^5 cells, mg/mouse: Thiotepa 0.1, Mitomycine C 0.016, BCNU 0.1, Methotrexate 0.250, example 7 0.2, Endoxan 4.
Where [9] appears, read: Table VII, 10^5 cells, example 7 0.2 mg/mouse, ON COVIN 0.5 μg/mouse.

Description for leukemic cells: A priming dose of endoxan (100 mg/kg) was given 3 days after 10^5 leukemic cells (20 mice).

Take `S=P(N1CC1)(N1CC1)N1CC1` [Thiotepa]: in the series on L 1210 leukemia [1] (setting [6]), the ILS % turned out to be 0% and the “MTS (mean survival time)” value is on record as 11. This molecule also registered a Range of death in the series on L 1210 leukemia [1] (setting [7]) of 10 to 11 days. For the same molecule, in the series with L 1210 leukemia [1] (setting [8]), the ILS % is given as 1.54%, the “MTS (mean survival time)” value stood at 9.2 and the Range of death is given as 9-10.
For `CC[C@]1(O)C[C@H]2CN(CCc3c([nH]c4ccccc34)[C@@](C(=O)OC)(c3cc4c(cc3OC)N(C=O)[C@H]3[C@@](O)(C(=O)OC)[C@H](OC(C)=O)[C@]5(CC)C=CCN6CC[C@]43[C@@H]65)C2)C1` [ON COVIN], in the series on L 1210 leukemia [1] (setting [9]), the ILS % is reported as 3.85%, the “MTS (mean survival time)” value turned out to be 10.8 and the Range of death was 10-13.
Regarding `CCN(CC)CCCC(C)Nc1nccc2c(C)c3[nH]c4ccncc4c3cc12` (stereo not drawn) [Example 10, 1-[(α-methyl-σ-diethylamino-butyl)-amino]-5-methyl-dipyrido-[4,3-b][3,4-f] indole], in the series with L1210 leukemia [2] (day +4), the ILS % is listed as 56.25% and the “Survivors up to 60 days” value amounted to 0. Also, in the series on L1210 leukemia [2] (day +4, control MST 11.2), the MST turned out to be 17.5 and the Range of death is 12-20. Also, in the series on mice, the “time of deaths after drug administration” value was in the range of 4 to 6 days. Also, the “minimal quantity resulting in 100% deaths” value in the series with mice (mouse, in vivo) was determined as 50 mg/kg.
Regarding `CN(Cc1cnc2nc(N)nc(N)c2n1)c1ccc(C(=O)N[C@@H](CCC(=O)O)C(=O)O)cc1` [Methotrexate], in the series with L 1210 leukemia [1] (setting [6]), the ILS % was determined as 44.62% and the “MTS (mean survival time)” value is 15.9. The Range of death in the series with L 1210 leukemia [1] (setting [7]) fell in the range of 15 to 17 days. In the series with L 1210 leukemia [1] (setting [8]), the ILS % came to 39.35%, the “MTS (mean survival time)” value stood at 12.62 and the Range of death is on record as 12-14.
`O=P1(N(CCCl)CCCl)NCCCO1` (stereo not shown) [Endoxan]: in the series with L 1210 leukemia [1] (Table V, 10^4 cells, Endoxan 4 mg/mouse), the “mice alive on 30th day (of 10)” value is 3. In addition, the Range of death with L 1210 leukemia [1] (setting [7]) is listed as 13 days; in the series on L 1210 leukemia [1] (setting [8]), 15-21; with leukemic cells (BCNU 2 mg/kg immediately after endoxan) it was 11-17. The figures for the ILS % in the series with L 1210 leukemia [1] (setting [8]) and in the series with leukemic cells (BCNU 2 mg/kg) were 105.30% and 16.9%, respectively. In addition, the “MTS (mean survival time)” value with L 1210 leukemia [1] (setting [8]) was found to be 18.6. The MST with leukemic cells (BCNU 2 mg/kg, control 11.2) worked out at 13.1.
`O=NN(CCCl)C(=O)NCCCl` [BCNU]: in the series with L 1210 leukemia [1] (setting [6]), the ILS % is 0.9% and the “MTS (mean survival time)” value came out at 11.1. In the series with L 1210 leukemia [1] (setting [7]), this molecule came in with a Range of death of 10 to 12 days. In the series with L 1210 leukemia [1] (setting [8]), the ILS % is 0%, the “MTS (mean survival time)” value was 8.8 and the Range of death is listed as 8-9.
Consider `Cc1c2ccnc(NCCCN(C)C)c2cc2c1[nH]c1ccncc12` [Example 8, 1-(γ-dimethylaminopropyl)amino-5-methyl-dipyrido-[4,3-b][3,4-f] indole], for which, in the series on Lewis carcinoma (3LL) (IP from J+5), the “protective action concerning metastasic pulmonary invasion of the lung” value is on record as “give a protective action”. The ILS % was 9.8% in the series on Lewis carcinoma (3LL) (J+5, 5 mg/kg); 34.9% in the series with L 1210 leukemia [3] (10^3 cells, 0.05 mg/mouse); 50.5% in the series on L 1210 leukemia [3] (10^3 cells, 0.1 mg/mouse); 34.9% with L 1210 leukemia [3] (10^4 cells, 0.05 mg/mouse); 25.7% in the series on L 1210 leukemia [3] (10^4 cells, 0.1 mg/mouse); 28.1% with L 1210 leukemia [3] (10^5 cells, 0.05 mg/mouse). Besides, the ILS % with L 1210 leukemia [3] (10^5 cells, 0.1 mg/mouse) is given as 52.5%; in the series on L1210 leukemia [4] (10^4 cells, 2.5 mg/kg), 34.9%; in the series on L1210 leukemia [4] (10^5 cells, 5 mg/kg) it was 52.5%. In the series with Lewis carcinoma (3LL) (J+5, 5 mg/kg, controls 25), this molecule gave an MST of 27.44. The “Number of surviving mice” value was 1 with L 1210 leukemia [3] (10^3 cells, 0.05 mg/mouse); 3 in the series with L 1210 leukemia [3] (10^3 cells, 0.1 mg/mouse); 1 with L 1210 leukemia [3] (10^4 cells, 0.05 mg/mouse); 3 with L 1210 leukemia [3] (10^4 cells, 0.1 mg/mouse). For the same molecule, the MTS with L 1210 leukemia [3] (10^3 cells, 0.1 mg/mouse) stood at 16.4; in the series with L 1210 leukemia [3] (10^4 cells, 0.1 mg/mouse), 13.7; in the series on L 1210 leukemia [3] (10^5 cells, 0.05 mg/mouse), 11.6; in the series with L 1210 leukemia [3] (10^5 cells, 0.1 mg/mouse), 13.8. Moreover, the “time of deaths after drug administration” value with mice is 3 to 5 days. The “minimal quantity resulting in 100% deaths” value with mice (mouse, in vivo) is 50 mg/kg. The 60 days surv. with L1210 leukemia [4] (10^4 cells, 2.5 mg/kg) was 1; in the series on L1210 leukemia [4] (10^5 cells, 5 mg/kg), 0. For the same molecule, the Range of death in the series with L1210 leukemia [4] (10^4 cells, 2.5 mg/kg) was 10-19; with L1210 leukemia [4] (10^5 cells, 5 mg/kg), 11-16. Also, in the series on L1210 leukemia [4] (Table XII summary), the “antitumoral activity compared with Ellipticinium acetate (HUM)” value is “compete favorably with Ellipticinium acetate (HUM)”.
Take `Cc1c2ccnc(NCCN(C)C)c2cc2c1[nH]c1ccncc12` [Example 9, 1-(β-dimethylaminoethyl)amino-5-methyl-dipyrido-[4,3-b][3,4-f] indole]: the “activity against L1210 leukemia (in words)” value in the series on L1210 leukemia [2] (Table XIII summary) was “active against L1210 leukemia”. In the series on L1210 leukemia [2] (day +1), the ILS % was 65.2% and the “Survivors up to 60 days” value was determined as 0. Also, in the series on L1210 leukemia [2] (day +1, control MST 8.8), the MST amounted to 14.6 and the Range of death is recorded as 11-18. Also, the “time of deaths after drug administration” value in the series on mice was 4 to 6 days. In the series on mice (mouse, in vivo), the “toxicity (toxic dose)” value worked out at 25 mg/kg and the “minimal quantity resulting in 100% deaths” value was 25 mg/kg.
In the case of `Cc1c2cc[nH]c(=O)c2cc2c1[nH]c1ccncc12` [Example 5, 1,2-dihydro-1-oxo 5-methyl-dipyrido-[4,3-b][3,4-f] indole], in series [5], the “Activity (ratio of the LD50 of HUM to the LD50 of the product tested)” value is on record as 0.15.
In the case of `CO[C@@]12[C@H](COC(N)=O)C3=C(C(=O)C(C)=C(N)C3=O)N1C[C@@H]1N[C@@H]12` [Mitomycine C], in the series on L 1210 leukemia [1] (setting [6]), the ILS % was 4.95% and the “MTS (mean survival time)” value was determined as 11.54. The molecule further displayed a Range of death in the series with L 1210 leukemia [1] (setting [7]) of 10 to 15 days. Further, in the series with L 1210 leukemia [1] (setting [8]), the ILS % is listed as 0%, the “MTS (mean survival time)” value is 9.06 and the Range of death is listed as 9-10.
